Measured values from ChEMBL document CHEMBL1150344, “Interaction of antagonists with calmodulin: insights from molecular dynamics simulations” (J Med Chem, 2008).
pKd: −log10 of the molar value.

Target: Calmodulin-1 (Homo sapiens, UniProt P0DP23)
Experiment: Binding affinity to calmodulin

pKd: 7.74
Compound: CCCCOc1ccc([C@@H](C)NCCCNCCC(c2ccccc2)c2ccccc2)cc1OCCCC
